Test results taken from patent US12721892B2, “Methods and compositions for chimeric antigen receptor targeting cancer cells” (The University of North Carolina at Chapel Hill, priority 2019, dated 2026).
“Also recorded” adds a separate entry of the source. Blank lines part the entries; values can stand above or below the compound they belong to.

Key:
CAR-CD3ζ phosphorylation = assay: Western blot of CAR-CD3ζ and proximal signaling phosphorylation; assay type: cell-based, human
Protocol: For western blot assays, protein lysate was normalized according to the amount of CAR expression and resolved on 4%-15% SDS polyacrylamide gel electrophoresis gels (SDS-PAGE, Bio-Rad). After protein transfer onto Polyvinylidene fluoride membranes (Bio-Rad), membranes were blocked in 5% non-fat milk in TBS-T and incubated with primary and secondary Abs in TBS-T with 1% milk. The following Abs were used: anti-CD3pY83 and anti-CD3pY142 (Abcam), anti-ZAP70pY319, anti-ZAP70, anti-LATpY191, anti-LAT, anti-LCK, anti-THEMIS, anti-SHP1 and anti-HA tag (Cell Signaling Technology), anti-CD3ζ, anti-FKBP, anti-β-actin (Santa Cruz), anti-FLAG (M2) (Sigma) and horseradish peroxidase conjugated secondary Abs (Goat-anti-mouse, Goat-anti-Rabbit from Thermo Scientific). Membranes were developed with SuperSignal West Femto Maximum Sensitivity Substrate (Thermo Scientific) on a Gel station (Bio-Rad).

[1] = tested on: CD69 expression and cytokine release of CAR-T cells; assay: Activation of CAR-T cells with anti-CAR19 anti-idiotype Ab (CD69 expression, cytokine release); assay type: cell-based, human
Protocol: (§1) For activation of CD19-specific CAR-T cells with the anti-idiotype Ab or CD19^+ tumor cells, anti-CAR19 and anti-CD3 Abs were serially diluted 2-fold, and coated on non-tissue culture treated 96-well plates for 16 hours. Plates were washed twice before plating T cells (2.5×10^5 cells/well). Plates were centrifuged at 1,000 g for 5 min, and incubated at 37° C. for 6 hours. Plates were then briefly spun, and 200 μl of the supernatant was collected for ELISA. Cells were collected and stained with anti-CAR19, CD4-PE, CD69-FITC Abs and Zombie Aqua™ dye (Biolegend) at 4° C. for 30 min. Samples were fixed and stored for flow cytometry analysis. For tumor cell-mediated activation, 5×10^4 BV173 tumor cells were seeded in each well of 96-well plates, and T cells were serially diluted and seeded. Six hours later, supernatant was collected for ELISA.
(§2) Cytokines in culture supernatants and plasma were measured using enzyme-linked immunosorbent assay (ELISA) or magnetic luminex assay following manufacturer's instructions (R&D Systems). Data were collected and analyzed using the Lumina-200 System and the Bio-Plex Manager 6.1 software (Bio-Rad).

Daudi-FFLuc cells = assay: NSG xenograft lymphoma model of SHP1 heterodimerization; assay type: in vivo, NSG mice
Protocol: Animal studies were performed in accordance with the Institutional Animal Care and Use Committee of UNC. For long-term in vivo cytotoxicity, male or female NSG (NOD-scid IL2Rg^null) mice were injected intravenously (i.v.) with 2×10^6 CD19^+ Daudi tumor cell line labeled with the Firefly luciferase gene (Daudi-FFLuc). Four to seven days later, mice received T cells control or expressing CARs intravenously (i.v.). For tumor re-challenging experiments, 2×10^6 CD19^+ Daudi-FFLuc cells were i.v. injected at indicated time point. Tumor growth was monitored every 2-3 days by injecting mice intraperitoneally (i.p.) with D-luciferin (150 mg/kg, Xenolight, PerkinElmer). Photon emission was analyzed using the Xenogen-IVIS Imaging System. For short-term in vivo T cell activation, NSG mice were injected with Daudi-FFLuc cells i.v. Two weeks later, CAR19.28ζ-Ts were labeled with Cell-trace Violet (Thermo Scientific) and CAR19.BBζ-Ts were labeled with CFSE (Thermo Scientific) as per manufacturer's instructions. Cells were mixed 1:1, and a total 1×10^7 cells were i.v. injected in each mouse. Peripheral blood, bone marrow, lung and spleen were harvested 6 hours after T cell injection, dissociated into single cells and stained with anti-human CD45-PE, CD3-APC and CD69-PE-Cy7 Abs. […] Tumor growth was monitored twice a week.

[2] = Humanized mouse CRS model of SHP1 heterodimerization; assay type: in vivo, humanized NSG mice
Source text: For the humanized mouse model to evaluate the effects of SHP1 heterodimerization in CAR-T cells in vivo, humanized NSG (NOD-scid IL2Rg^null) mice (NSG-hu HSC) were generated. Briefly, human fetal liver tissues were obtained from elective or medically indicated termination of pregnancy through a non-profit intermediary working with outpatient clinics (Advanced Bioscience Resources). CD34^+ hematopoietic stem cells (HSC) were transplanted in newborn NSG mice through intra-liver injection of 2×10^5 purified HSC. Human immune cell engraftment was detected by flow cytometry 12 weeks after transplantation. Standard parameters of evaluation of CRS in humanized NSG mice was performed. Mice were infused with 5×10^6 CAR-T cells at day 0, and plasma was collected at days 1 and 2. AP21967 was administrated intraperitoneally at 10 mg/kg dose. Weight of each mouse was normalized to starting weight before CAR-T cell infusion. In a second CRS murine model, 7-10-week-old female C.B-Igh-1b/GbmsTac-Prkdc^scid-Lyst^bgN7 (SCID-beige, Taconic Biosciences) mice were injected i.p. with Raji-FFluc cells. After 21 days, mice were grouped based on the BLI (total flux). Mice were infused i.p. with 30×10^6 CAR-T cells. Weight of each mouse was normalized to starting weight before CAR-T cell infusion.

[3] = tested on: CD19+ BV173 tumor cell line; assay: Co-culture / stimulation with CD19+ BV173 tumor cells; assay type: cell-based, human
Protocol: as §1, §2
For co-culture assays, CD19^+ BV173 tumor cells were seeded into 24-well plates with 5×10^5 cells/well and T cells were added at different effector to target (E:T) ratios (E:T=1:1 or 1:5). After 24 hours, supernatant was collected for ELISA. Three days later, cells were collected and stained with anti-human CD3 and CD19 Abs for flow cytometry analysis.

[4] = tested on: Ca2+ influx in CAR-T cells; assay: Ca2+ influx assay after anti-CAR19 Ab stimulation; assay type: cell-based, human; settings: stimulated with α-CAR19 antibody; FIG. 6
Protocol: For Ca^2+ influx assays, T cells were incubated with Ca^2+ indicator as per manufacturer's instructions (Ca^2+ influx assay, BD Bioscience). Cells were incubated with anti-CAR19 Ab followed by goat anti-mouse secondary Ab on ice. Ca^2+ current was measured by flow cytometry for time-lapsed fluorescence change. Cells were first collected on ice as the baseline of the Ca^2+ current, and then activated at 37° C. for the Ca^2+ current during T cell activation.

[5] = transient AP21967, FIGS. 21B-21C

Compound: [Na+].[Na+].[Na+].[O]=[V]([O-])([O-])[O-] [Na3 VO4]
Antigen-independent phosphorylation of CAR-CD3ζ in CAR19.BBζ-T cells (CAR-CD3ζ phosphorylation; 200 μM phosphatase inhibitor, FIG. 2E): promoted

Compound: CD8α-wt: wild type CD8α
Basal CAR-CD3ζ phosphorylation in CD4+ T cells co-expressing CAR.19.BK (CAR-CD3ζ phosphorylation; co-expression of CD8α construct, FIG. 2D top): increased

Compound: CC(C)(C)n1nc(-c2ccc(Cl)cc2)c2c(N)ncnc21 [PP2]
Responsiveness of CAR19.28ζ-T cells to CAR crosslinking (CD69, IFNγ and IL-2) after PP2 pretreatment ([1]; 10 μM PP2 for 16 hours, low doses of anti-CAR19 antibody, FIG. 2B): reduced their responsiveness to CAR crosslinking with low doses of anti-CAR19 antibody to similar levels of CAR19.BBζ-T cells | PP2-mediated inhibition in CAR19.28ζ-T cells at high doses of anti-CAR19 antibody ([1]; 10 μM PP2 pretreatment, high doses of anti-CAR19 antibody): partially overcame | CAR-CD3ζ basal phosphorylation of CAR19.28ζ-T cells on addition of kinase inhibitor (CAR-CD3ζ phosphorylation; inhibitor at 10 μM for 16 hours, FIG. 2A): abrogated

Weight loss ([2]; AP21967 twice on day 1, 10 mg/kg intraperitoneally, FIG. 21A): alleviated their weight loss | Release in the plasma of human GM-CSF [2, 5]: significantly reduced | Release in the plasma of human IFNγ [2, 5]: significantly reduced | Release in the plasma of human IL-6 [2, 5]: significantly reduced | Release in the plasma of human TNFα [2, 5]: significantly reduced
Compound: CO[C@H]1[C@@H](O)[C@H](C)C[C@H](C)/C=C/C=C/C=C(\C)[C@@H](c2c[nH]c3c(C)cccc23)C[C@@H]2CC[C@@H](C)[C@@](O)(O2)C(=O)C(=O)N2CCCC[C@H]2C(=O)O[C@H]([C@H](C)C[C@@H]2CC[C@@H](O)[C@H](OC)C2)C[C@H](O)[C@H](C)/C=C(\C)[C@H]1O [AP21967]
IFNγ release in vivo (plasma) (Daudi-FFLuc cells; AP21967 twice on day 2, 10 mg/kg intraperitoneally, FIG. 20A): reduced IFNγ release by CAR19.28ζ-T cells co-expressing SHP1 | Antitumor effects in vivo (Daudi-FFLuc cells; AP21967 twice on day 2, tumor growth days 7-39, FIG. 20B): without impairing their antitumor effects | CAR-CD3ζ phosphorylation upon antigen binding (CAR-CD3ζ phosphorylation; CAR19.28ζ.FRB-T cells co-transduced with FKBP-SHP1, 1 μM AP21967, FIG. 16): tunes down CAR-CD3ζ phosphorylation upon antigen binding | Antigen-independent CAR-CD3ζ phosphorylation of CAR19.28ζ-Ts (CAR-CD3ζ phosphorylation; FKBP-SHP1 co-expressed, FIG. 16): reduce antigen-independent CAR-CD3ζ phosphorylation | Therapeutic effect of CAR19.28ζ-T cells in vivo ([2]; cell counts on day 21, FIG. 21D): did not impair the therapeutic effect | Antitumor activity in vitro ([3]; CAR19.28ζ-T cells with FKBP-SHP1, BV173 co-culture): without compromising their antitumor activity in vitro | IFNγ release / production ([3]; CAR19.28ζ.FRB-T cells with FKBP-SHP1 and BV173 at 1:5 ratio, FIGS. 17 and 18): reduces IFNγ release by CAR19.28ζ-T cells in a reversible manner; also recorded: reversible regulation of IFNγ production | Cytotoxicity ([3]; FKBP-SHP1 co-expressed, FIG. 17): controlled cytotoxicity

Compound: LCK: full-length human LCK, FLAG-tagged, overexpressed in CAR-T cells
CAR-CD3ζ phosphorylation in CAR19.28ζ-Ts with LCK overexpression (CAR-CD3ζ phosphorylation; FIG. 5): enhanced | Basal CAR-CD3ζ phosphorylation in CAR19.BBζ-T cells with LCK overexpression (CAR-CD3ζ phosphorylation; day 10 of in vitro expansion, three donors, FIG. 5): increasing; also recorded: dramatically increased CAR-CD3ζ phosphorylation of CAR19.BBζ to a comparable level as CAR19.28ζ | Ca2+ influx with LCK overexpression [4]: increasing; also recorded: correspondingly increased
